The target in one test is G3BP1 NTF2 (Homo sapiens, UniProt Q13283). The conditions noted are these: FP displacement of FITC-N_SARS-CoV-2 (10 nM) complexed with domain (1-2x KD), 50 mM sodium phosphate pH 7.4, KD from IC50, technical triplets, n.b. = not binding within concentration range used.
Test [1] addresses T1, MAP1LC3A ATG8 (Homo sapiens, UniProt Q9H492). In words: GenVar_HD2 ProP-PD phage selection, MAP1LC3A ATG8. The conditions noted are these: bait MAP1LC3A ATG8; from NGS counts of overlapping wild-type/mutant library peptide pairs; positive = mutation enhances, negative = disrupts binding. On the procedure: (§1) Phage display screens were performed according to previous reports (Benz et al, [2022]; Ali et al, [2020]) and for four consecutive selection rounds with five to six replicates per bait protein domain against the […] library.
(§2) On the first day, both bait (15 µg in 100 µL PBS) and control protein domains (GST and MBP; 10 µg in 100 µL PBS) were immobilised on a 96-well MaxiSorb plate (Nunc) overnight in the cold room while shaking. Additionally, a 10 mL culture of Omnimax E. coli bacteria supplemented with 10 µg/mL tetracycline was incubated overnight at 37 °C at 200 rpm.
(§3) First, protein solutions were removed from both control and bait protein domain plates and the wells were blocked with 0.5% BSA in PBS (200 µL/well) for 1 h in the cold room while shaking. After that, three Omnimax E. coli cultures were started supplemented with either 30 µg/mL kanamycin, 100 µg/mL carbenicillin and 10 µg/mL tetracycline and incubated at 37 °C and 200 rpm. The two first cultures served as a means to check for helper phage contamination (kanamycin) and phages with library phagemid contamination (carbenicillin) of the culture used for elution of the phages during selections. The tetracycline Omnimax E. coli culture was grown until OD at 600 nm reached 0.6–0.8. […]

The target in test [2] is T2, GGA1 VHS (Homo sapiens, UniProt Q9UJY5).
T2 sequence (Q9UJY5 1-157): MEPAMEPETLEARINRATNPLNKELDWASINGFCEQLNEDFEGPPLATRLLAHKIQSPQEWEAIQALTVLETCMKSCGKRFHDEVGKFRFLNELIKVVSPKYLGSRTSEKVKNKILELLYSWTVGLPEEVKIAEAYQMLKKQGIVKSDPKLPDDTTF
Put plainly: GenVar_HD2 ProP-PD phage selection, GGA1 VHS. The conditions noted are these: bait GGA1 VHS; from NGS counts of overlapping wild-type/mutant library peptide pairs; positive = mutation enhances, negative = disrupts binding. On the procedure:
as §1, §2, §3

In test [3] the target is T1, MAP1LC3A ATG8. In words: FP displacement assay, MAP1LC3A ATG8. In kind it is binding. Particulars: read-out: KD-values [µM] + SEM.
Description: (§4) FP experiments were performed, as previously described (Kliche et al, [2021], [2023]), on an iD5 plate reader (Molecular devices) using black half-area non-binding 96-well plates (Corning). In order to calculate the FP signal in millipolarisation (mP), the FITC-labelled peptides were excited at 485 nm and the emitted light was measured at 535 nm in two different angles. For saturation experiments, a dilution series of the respective protein domains was generated (25 µL) and 10 nM fluorescein isothiocyanate (FITC)-labelled peptide (diluted in 50 mM sodium phosphate buffer pH 7.4, 0.05% Tween) were added in an end volume of 50 µL. […] For fitting the data, the buffer-corrected reduced values were plotted in GraphPad PRISM against the respective protein concentration and the KD-values were obtained by fitting against the quadratic equation (Gianni et al, [2005]).
(§5) The buffer-corrected reduced values were subsequently plotted against the logarithmic unlabelled peptide concentration to derive the IC50 values by using the sigmoidal dose-response (x is logarithmic) fit in GraphPad PRISM and calculate the KD values as described previously (Nikolovska-Coleska et al, [2004]).
Test [4] deals with T3, CLTC NTD (Homo sapiens, UniProt Q00610).
T3 sequence (Q00610 1-364): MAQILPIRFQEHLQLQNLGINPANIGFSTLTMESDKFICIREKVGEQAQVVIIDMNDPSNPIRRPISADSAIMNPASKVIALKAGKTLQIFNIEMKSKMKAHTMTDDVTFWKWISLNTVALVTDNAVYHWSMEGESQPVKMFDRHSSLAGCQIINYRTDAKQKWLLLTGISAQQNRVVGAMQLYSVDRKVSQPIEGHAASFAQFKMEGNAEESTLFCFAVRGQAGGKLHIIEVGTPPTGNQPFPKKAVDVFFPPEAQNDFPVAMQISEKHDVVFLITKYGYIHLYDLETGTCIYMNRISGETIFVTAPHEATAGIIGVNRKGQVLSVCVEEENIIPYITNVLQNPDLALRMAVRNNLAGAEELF
In words: GenVar_HD2 ProP-PD phage selection, CLTC NTD. Particulars: bait CLTC NTD; from NGS counts of overlapping wild-type/mutant library peptide pairs; positive = mutation enhances, negative = disrupts binding. On the procedure:
as §1, §2, §3

In test [5] the target is T4, G3BP2 NTF2 (Homo sapiens, UniProt Q9UN86).
T4 sequence (Q9UN86 1-139): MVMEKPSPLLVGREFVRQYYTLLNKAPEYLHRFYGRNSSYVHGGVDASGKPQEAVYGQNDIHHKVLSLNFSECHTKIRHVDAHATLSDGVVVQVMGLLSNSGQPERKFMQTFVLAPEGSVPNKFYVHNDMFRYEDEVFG
Put plainly: GenVar_HD2 ProP-PD phage selection, G3BP2 NTF2. The conditions noted are these: bait G3BP2 NTF2; from NGS counts of overlapping wild-type/mutant library peptide pairs; positive = mutation enhances, negative = disrupts binding. Here is the method:
as §1, §2, §3

The target of test [6] is T4, G3BP2 NTF2. Put plainly: FP displacement assay, G3BP2 NTF2. Particulars: FP displacement of FITC-N_SARS-CoV-2 (10 nM) complexed with domain (1-2x KD), 50 mM sodium phosphate pH 7.4, KD from IC50, technical triplets, n.b. = not binding within concentration range used.
For a further test, the target named is NEDD4 WW2 (Homo sapiens, UniProt P46934). Put plainly: FP saturation binding, NEDD4 WW2. The conditions noted are these: GST-tagged construct, domain titrated to 10 nM FITC-peptide, 50 mM sodium phosphate pH 7.4, 0.05% Tween, quadratic fit, technical triplets, read-out: KD [µM] + SE.
For test [7], the target named is T5, USP7 MATH/TRAF (Homo sapiens, UniProt Q93009). In words: FP saturation binding, USP7 MATH/TRAF. The conditions noted are these: domain titrated to 10 nM FITC-peptide, 50 mM sodium phosphate pH 7.4, 0.05% Tween, quadratic fit, technical triplets, read-out: KD [µM] + SE.
The target in test [8] is T6, GABARAPL1 ATG8 (Homo sapiens, UniProt Q9H0R8). Put plainly: FP saturation binding, GABARAPL1 ATG8. Particulars: domain titrated to 10 nM FITC-peptide, 50 mM sodium phosphate pH 7.4, 0.05% Tween, quadratic fit, technical triplets, read-out: KD [µM] + SE.
Test [9] concerns the target T6, GABARAPL1 ATG8. Put plainly: FP displacement assay, GABARAPL1 ATG8. It is filed as binding. Particulars: read-out: KD-values [µM] + SEM.
Description: as §4, §5
The target of test [10] is T7, MAP1LC3B ATG8 (Homo sapiens, UniProt Q9GZQ8). Put plainly: FP displacement assay, MAP1LC3B ATG8. In kind it is binding.
Description: FP experiments were performed, as previously described (Kliche et al, [2021], [2023]), on an iD5 plate reader (Molecular devices) using black half-area non-binding 96-well plates (Corning). In order to calculate the FP signal in millipolarisation (mP), the FITC-labelled peptides were excited at 485 nm and the emitted light was measured at 535 nm in two different angles. For saturation experiments, a dilution series of the respective protein domains was generated (25 µL) and 10 nM fluorescein isothiocyanate (FITC)-labelled peptide (diluted in 50 mM sodium phosphate buffer pH 7.4, 0.05% Tween) were added in an end volume of 50 µL. A control experiment titrating GST was performed for the binding of the NEDD4 WW2 domain, since the GST-tagged construct was used for affinity measurements. For fitting the data, the buffer-corrected reduced values were plotted in GraphPad PRISM against the respective protein concentration and the KD-values were obtained by fitting against the quadratic equation (Gianni et al, [2005]).
as §5
Test [11] deals with T6, GABARAPL1 ATG8. In words: GenVar_HD2 ProP-PD phage selection, GABARAPL1 ATG8. Particulars: bait GABARAPL1 ATG8; from NGS counts of overlapping wild-type/mutant library peptide pairs; positive = mutation enhances, negative = disrupts binding. On the procedure: as §1, §2, §3
The target of test [12] is T7, MAP1LC3B ATG8. In words: GenVar_HD2 ProP-PD phage selection, MAP1LC3B ATG8. The conditions noted are these: bait MAP1LC3B ATG8; from NGS counts of overlapping wild-type/mutant library peptide pairs; positive = mutation enhances, negative = disrupts binding. Here is the method:
as §1, §2
First, protein solutions were removed from both control and bait protein domain plates and the wells were blocked with 0.5% BSA in PBS (200 µL/well) for 1 h in the cold room while shaking. After that, three Omnimax E. coli cultures were started supplemented with either 30 µg/mL kanamycin, 100 µg/mL carbenicillin and 10 µg/mL tetracycline and incubated at 37 °C and 200 rpm. The two first cultures served as a means to check for helper phage contamination (kanamycin) and phages with library phagemid contamination (carbenicillin) of the culture used for elution of the phages during selections. The tetracycline Omnimax E. coli culture was grown until OD at 600 nm reached 0.6–0.8.
Naïve phage libraries were precipitated (10 µL/well of bait protein domain) by diluting the library tenfold with PBS, adding one-fourth of 20% […] and 400 mM NaCl and incubating the mixture for 15 min on ice. Subsequently, phages were spun down for 15 min at 13,000 × g and resuspended in 0.5% BSA and 0.05% Tween-20 in PBS (100 µL/well). Control domain plates were washed four times with 200 µL 0.05% Tween-20 in PBS, 100 µL of the naïve phage library (10^11 phages/mL) were added to every well and the plates incubated for 1 h in the cold room while shaking. Next, protein bait domain plates were washed four times with 0.05% Tween-20 in PBS and the phage solution from the control protein plate was transferred to the respective wells on the protein bait domain plate. […]

For test [13], the target named is T3, CLTC NTD. In words: FP displacement assay, CLTC NTD. Particulars: read-out: KD-values [µM] + SEM. In kind it is binding.
Description: as §4, §5
Test [14] addresses T2, GGA1 VHS. Put plainly: FP saturation binding, GGA1 VHS. Particulars: domain titrated to 10 nM FITC-peptide, 50 mM sodium phosphate pH 7.4, 0.05% Tween, quadratic fit, technical triplets, read-out: KD [µM] + SE.
For test [15], the target named is T5, USP7 MATH/TRAF. In words: FP displacement assay, USP7 MATH/TRAF. It is filed as binding. The conditions noted are these: read-out: KD-values [µM] + SEM.
Description: as §4, §5
Test [16] concerns the target T5, USP7 MATH/TRAF. Put plainly: GenVar_HD2 ProP-PD phage selection, USP7 MATH/TRAF. Particulars: bait USP7 MATH/TRAF; from NGS counts of overlapping wild-type/mutant library peptide pairs; positive = mutation enhances, negative = disrupts binding. Here is the method: as §1, §2, §3

The record followed here is paper PMC11369174, “Proteome-scale characterisation of motif-based interactome rewiring by disease mutations” (Molecular Systems Biology, 2024).

Where a SMILES comes first, the peptide text is derived from it. The star is where a group is joined. FITC = O=C1OC2(c3ccc(O)cc3Oc3cc(O)ccc32)c2ccc(NC(=S)*)cc21 A value given as a limit tells only on which side of the number the result lay.

T5 sequence (Q93009 53-206): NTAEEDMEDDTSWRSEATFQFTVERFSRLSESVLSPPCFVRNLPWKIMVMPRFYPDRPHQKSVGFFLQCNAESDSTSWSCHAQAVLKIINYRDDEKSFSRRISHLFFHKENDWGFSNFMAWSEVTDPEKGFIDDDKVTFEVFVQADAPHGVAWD
T6 sequence (Q9H0R8 2-115): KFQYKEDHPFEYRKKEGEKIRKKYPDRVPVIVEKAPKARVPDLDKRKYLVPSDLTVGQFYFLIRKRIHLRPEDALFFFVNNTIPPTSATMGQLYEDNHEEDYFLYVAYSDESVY
Chain of G3BP1 NTF2 (Q13283 1-139): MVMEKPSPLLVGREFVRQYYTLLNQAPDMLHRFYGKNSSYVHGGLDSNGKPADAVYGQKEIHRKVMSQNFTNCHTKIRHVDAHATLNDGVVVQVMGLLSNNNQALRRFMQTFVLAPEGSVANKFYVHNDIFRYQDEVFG
Chain of NEDD4 WW2 (P46934 765-803 limits assumed): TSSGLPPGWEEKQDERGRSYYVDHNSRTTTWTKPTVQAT
Description for NEDD4 WW2: In order to calculate the FP signal in millipolarisation (mP), the FITC-labelled peptides were excited at 485 nm and the emitted light was measured at 535 nm in two different angles. For saturation experiments, a dilution series of the respective protein domains was generated (25 µL) and 10 nM fluorescein isothiocyanate (FITC)-labelled peptide (diluted in 50 mM sodium phosphate buffer pH 7.4, 0.05% Tween) were added in an end volume of 50 µL. A control experiment titrating GST was performed for the binding of the NEDD4 WW2 domain, since the GST-tagged construct was used for affinity measurements. For fitting the data, the buffer-corrected reduced values were plotted in GraphPad PRISM against the respective protein concentration and the KD-values were obtained by fitting against the quadratic equation (Gianni et al, [2005]).

In the case of “H3COC-QQSYLD(S/F)GIHSGATTT-NH2 [CTNNB1_27-42 wild-type]”, the “KD-values [µM] + SEM” value at G3BP1 NTF2 is “no binding and n.b”.

For the compound “Ac-QTKWEPLQQVDTSTRT-NH2 [KRT1_209-224 L214P]”, the Mutation enrichment score on MAP1LC3A ATG8 [1] is given as −6.

With “Ac-YQQELDHLLVDLDHQR-NH2 [MYH9_1419-1433 D1424H]”, on GGA1 VHS [2], the Mutation enrichment score is reported as −10.

As to “Ac-QTKWELLQQVDTSTRT-NH2 [KRT1_209-224 wild-type]”, on MAP1LC3A ATG8 [3], the Kd was 55 ± 5 µM.

As for “Ac-DLLTFGQAQMNFPY-NH2 [BCL11A_44-56 C48F]”, the Mutation enrichment score is recorded as 12 at CLTC NTD [4] and 10 at G3BP2 NTF2 [5].

For the compound “Ac-DLLTCGQAQMNFPY-NH2 [BCL11A_44-56 wild-type]”, the “KD-values [µM] + SEM” value at G3BP2 NTF2 [6] is “n.b”.

`C[C@H](NC(=O)[C@H](CO)NC(=O)[C@H](Cc1ccc(O)cc1)NC(=O)[C@@H]1CCCN1C(=O)[C@@H]1CCCN1C(=O)[C@@H]1CCCN1C(=O)[C@H](CO)NC(=O)[C@H](CC(=O)O)NC(=O)[C@@H](NC(=S)Nc1ccc2c(c1)C(=O)OC21c2ccc(O)cc2Oc2cc(O)ccc21)[C@@H](C)O)C(=O)NCC(=O)O` [FITC-UL56(HHV-2)] ({FITC}-TDSPPPYSAG-OH): the equilibrium dissociation constant (Kd) at NEDD4 WW2 was found to be 4.1 ± 0.3 µM.

As for `CC[C@H](C)[C@H](NC(=O)[C@H](CO)NC(=O)[C@H](CO)NC(=O)[C@H](CO)NC(=O)[C@@H](NC(=O)[C@H](CO)NC(=O)[C@@H]1CCCN1C(=O)[C@H](CCC(N)=O)NC(=O)[C@H](CO)NC(=O)[C@H](Cc1ccc(O)cc1)NC(=O)[C@H](CC(=O)O)NC(=S)Nc1ccc2c(c1)C(=O)OC21c2ccc(O)cc2Oc2cc(O)ccc21)[C@@H](C)O)C(=O)N[C@H](C(=O)N[C@@H](Cc1ccc(O)cc1)C(=O)O)[C@@H](C)CC` [FITC-MDM2] ({FITC}-DYSQPSTSSSIIY-OH), the Kd at USP7 MATH/TRAF [7] was 0.5 ± 0.03 µM.

As for `CC(C)C[C@H](NC(=O)[C@H](Cc1c[nH]cn1)NC(=O)[C@@H](NC(=O)[C@H](Cc1c[nH]c2ccccc12)NC(=O)[C@H](CC(=O)O)NC(=O)[C@H](CC(=O)O)NC(=O)[C@H](CC(=O)O)NC(=S)Nc1ccc2c(c1)C(=O)OC21c2ccc(O)cc2Oc2cc(O)ccc21)[C@@H](C)O)C(=O)N[C@@H](CO)C(=O)N[C@@H](CO)C(=O)N[C@@H](CCCCN)C(N)=O` [FITC-SQSTM1], on GABARAPL1 ATG8 [8], the Kd was 3.7 ± 0.4 µM.

As for “Ac-DKDEWQFLDQNEDAFE-NH2 [BUB1_486-501 S492F]”, the equilibrium dissociation constant (Kd) at GABARAPL1 ATG8 [9] was less than 0.3 µM; on MAP1LC3B ATG8 [10] (read-out: KD-values [µM] + SEM), 1.6 ± 0.1 µM. The “increase in affinity, mutant vs wild-type peptide” value at MAP1LC3B ATG8 [10] (from FP displacement KD values, MAP1LC3B ATG8) is on record as “four-fold increase in affinity”. Further, the figures for the Mutation enrichment score on GABARAPL1 ATG8 [11] and at MAP1LC3B ATG8 [12] were 16 and 12, respectively.

For the compound “Ac-SGNLIDLYGNQGLPY-NH2 [MITF_258-271 wild-type]”, at CLTC NTD [13], the dissociation constant (Kd) came to 191 ± 27 µM.

With `CC[C@H](C)[C@H](NC(=O)[C@H](CC(=O)O)NC(=O)[C@H](CC(C)C)NC(=O)[C@H](CC(C)C)NC(=O)[C@H](CC(=O)O)NC(=O)[C@H](CCC(=O)O)NC(=O)[C@H](CC(=O)O)NC(=O)[C@H](CCC(=O)O)NC(=O)[C@H](CC(=O)O)NC(=S)Nc1ccc2c(c1)C(=O)OC21c2ccc(O)cc2Oc2cc(O)ccc21)C(=O)N[C@@H](CCC(=O)O)C(=O)N[C@@H](CC(=O)O)C(N)=O` [FITC-STK11_mut] ({FITC}-DEDEDLLDIED-NH2), the Kd at GGA1 VHS [14] was 14.1 ± 0.7 µM.

Turning to “Ac-YISSSSTSTMPNSSKSS-NH2 [CHK2_38-53 Q51K]”, on USP7 MATH/TRAF [15], the Kd was 4.7 ± 0.3 µM. Also, the Mutation enrichment score at USP7 MATH/TRAF [16] was −6.

As for “Ac-SGNLIDLCGNQGLPY-NH2 [MITF_258-271 Y265C]”, the Kd on CLTC NTD [13] amounted to 206 ± 13 µM. Moreover, the Mutation enrichment score at CLTC NTD [4] is −9.8.
